Experimental data as given in ChEMBL document CHEMBL1240298, “Features of selective kinase inhibitors” (Chem Biol, 2005).

What was measured:
[1] = target: T1, Tyrosine-protein kinase ITK/TSK (Homo sapiens, UniProt Q08881)
T1 sequence (Q08881 whole entry): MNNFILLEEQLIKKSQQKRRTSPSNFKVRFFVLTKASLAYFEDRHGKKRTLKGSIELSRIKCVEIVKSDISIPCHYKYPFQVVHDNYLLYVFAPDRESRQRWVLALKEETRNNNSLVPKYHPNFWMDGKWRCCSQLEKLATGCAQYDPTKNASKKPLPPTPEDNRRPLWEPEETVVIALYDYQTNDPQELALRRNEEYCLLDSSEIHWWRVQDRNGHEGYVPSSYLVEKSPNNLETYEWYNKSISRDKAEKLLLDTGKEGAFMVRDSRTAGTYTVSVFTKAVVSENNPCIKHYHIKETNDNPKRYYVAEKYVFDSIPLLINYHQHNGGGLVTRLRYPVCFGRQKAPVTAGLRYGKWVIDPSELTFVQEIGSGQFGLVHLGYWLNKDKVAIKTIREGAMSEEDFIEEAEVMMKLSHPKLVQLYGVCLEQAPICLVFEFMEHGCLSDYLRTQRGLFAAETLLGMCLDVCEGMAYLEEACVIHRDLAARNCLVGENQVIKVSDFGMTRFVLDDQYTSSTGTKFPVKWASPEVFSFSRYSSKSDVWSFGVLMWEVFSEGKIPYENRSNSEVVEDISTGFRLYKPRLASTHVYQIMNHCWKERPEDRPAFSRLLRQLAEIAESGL

[2] = target: Tyrosine-protein kinase Lck (Homo sapiens, UniProt P06239)
Sequence of Tyrosine-protein kinase Lck (P06239 whole entry): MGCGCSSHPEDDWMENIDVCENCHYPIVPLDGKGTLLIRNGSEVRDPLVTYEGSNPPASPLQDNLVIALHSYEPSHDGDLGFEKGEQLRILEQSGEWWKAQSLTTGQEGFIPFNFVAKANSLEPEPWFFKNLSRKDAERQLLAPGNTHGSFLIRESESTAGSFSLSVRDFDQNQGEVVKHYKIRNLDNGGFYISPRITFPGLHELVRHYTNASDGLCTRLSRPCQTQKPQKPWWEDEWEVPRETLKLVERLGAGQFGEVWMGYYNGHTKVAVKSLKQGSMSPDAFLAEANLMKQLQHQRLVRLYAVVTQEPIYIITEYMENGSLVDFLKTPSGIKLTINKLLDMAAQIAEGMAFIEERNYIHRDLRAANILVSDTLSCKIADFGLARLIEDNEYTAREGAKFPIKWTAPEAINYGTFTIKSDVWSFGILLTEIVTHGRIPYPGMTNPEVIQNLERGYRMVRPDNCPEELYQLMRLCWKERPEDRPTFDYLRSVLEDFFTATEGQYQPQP

Ki [1]	Ki [2]	SMILES
16 nM	–	COc1cc(C)c(Sc2cnc(NC(=O)c3ccc(CNC(C)C(C)(C)C)cc3)s2)cc1C(=O)N1CCN(C(C)=O)CC1 (configuration not stated)
–	4 nM	Cc1cccc(Cl)c1NC(=O)c1ccc2nc(NC(=O)NC(C)(C)C)sc2c1
